The target of test [1] is Tyrosine-protein kinase SYK (Homo sapiens, UniProt P43405). To be noted: at 10 µM.
Test [2] addresses T1, Mitogen-activated protein kinase kinase kinase 5 (Homo sapiens) (UniProt Q99683).
T1 sequence (whole entry): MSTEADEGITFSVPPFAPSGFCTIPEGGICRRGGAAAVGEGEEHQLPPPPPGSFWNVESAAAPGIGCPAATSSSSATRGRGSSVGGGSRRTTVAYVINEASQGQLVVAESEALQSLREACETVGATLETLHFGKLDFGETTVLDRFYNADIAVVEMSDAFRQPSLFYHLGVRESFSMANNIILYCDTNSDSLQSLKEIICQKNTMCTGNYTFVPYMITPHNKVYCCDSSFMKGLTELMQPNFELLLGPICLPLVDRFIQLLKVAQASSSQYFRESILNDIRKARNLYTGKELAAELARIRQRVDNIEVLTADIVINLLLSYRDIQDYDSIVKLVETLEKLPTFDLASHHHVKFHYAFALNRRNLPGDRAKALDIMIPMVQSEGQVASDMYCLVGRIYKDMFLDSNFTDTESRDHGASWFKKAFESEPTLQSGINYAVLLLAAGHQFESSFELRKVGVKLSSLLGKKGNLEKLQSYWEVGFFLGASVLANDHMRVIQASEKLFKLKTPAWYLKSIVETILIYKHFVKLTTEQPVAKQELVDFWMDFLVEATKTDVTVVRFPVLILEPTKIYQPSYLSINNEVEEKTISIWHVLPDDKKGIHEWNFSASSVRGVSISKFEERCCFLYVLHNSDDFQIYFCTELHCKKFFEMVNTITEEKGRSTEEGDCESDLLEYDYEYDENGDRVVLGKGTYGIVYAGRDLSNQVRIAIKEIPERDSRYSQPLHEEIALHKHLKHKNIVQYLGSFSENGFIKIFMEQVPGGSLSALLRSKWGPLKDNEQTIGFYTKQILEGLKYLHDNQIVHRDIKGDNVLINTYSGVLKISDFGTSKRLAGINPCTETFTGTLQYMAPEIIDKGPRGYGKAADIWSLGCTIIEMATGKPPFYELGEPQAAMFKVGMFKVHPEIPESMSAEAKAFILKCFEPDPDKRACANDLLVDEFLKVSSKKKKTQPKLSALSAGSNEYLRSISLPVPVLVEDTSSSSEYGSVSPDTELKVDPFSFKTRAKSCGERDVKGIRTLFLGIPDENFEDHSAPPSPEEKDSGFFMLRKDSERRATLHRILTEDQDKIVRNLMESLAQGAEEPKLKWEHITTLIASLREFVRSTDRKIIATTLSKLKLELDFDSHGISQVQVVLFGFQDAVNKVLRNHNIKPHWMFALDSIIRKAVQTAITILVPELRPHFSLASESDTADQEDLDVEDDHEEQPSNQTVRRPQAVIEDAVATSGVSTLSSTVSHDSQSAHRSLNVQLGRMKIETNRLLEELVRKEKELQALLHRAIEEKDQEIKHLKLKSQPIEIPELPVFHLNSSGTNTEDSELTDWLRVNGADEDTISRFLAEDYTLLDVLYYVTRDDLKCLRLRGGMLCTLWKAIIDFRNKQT
Briefly: Selectivity interaction (Kinase panel (Invitrogen)) EUB0000639a MAP3K5. To be noted: at 200 nM.

The target in test [3] is Mitogen-activated protein kinase kinase kinase 11 (Homo sapiens) (UniProt Q16584). Briefly: Selectivity interaction (ActivX KiNativ screen (kinase selectivity in THP-1 cell lysates)) EUB0000639a MAP3K11. In kind it is subcellular. To be noted: lysate, at 1 µM.
Sequence of Mitogen-activated protein kinase kinase kinase 11 (Homo sapiens) (Q16584 whole entry, looked up): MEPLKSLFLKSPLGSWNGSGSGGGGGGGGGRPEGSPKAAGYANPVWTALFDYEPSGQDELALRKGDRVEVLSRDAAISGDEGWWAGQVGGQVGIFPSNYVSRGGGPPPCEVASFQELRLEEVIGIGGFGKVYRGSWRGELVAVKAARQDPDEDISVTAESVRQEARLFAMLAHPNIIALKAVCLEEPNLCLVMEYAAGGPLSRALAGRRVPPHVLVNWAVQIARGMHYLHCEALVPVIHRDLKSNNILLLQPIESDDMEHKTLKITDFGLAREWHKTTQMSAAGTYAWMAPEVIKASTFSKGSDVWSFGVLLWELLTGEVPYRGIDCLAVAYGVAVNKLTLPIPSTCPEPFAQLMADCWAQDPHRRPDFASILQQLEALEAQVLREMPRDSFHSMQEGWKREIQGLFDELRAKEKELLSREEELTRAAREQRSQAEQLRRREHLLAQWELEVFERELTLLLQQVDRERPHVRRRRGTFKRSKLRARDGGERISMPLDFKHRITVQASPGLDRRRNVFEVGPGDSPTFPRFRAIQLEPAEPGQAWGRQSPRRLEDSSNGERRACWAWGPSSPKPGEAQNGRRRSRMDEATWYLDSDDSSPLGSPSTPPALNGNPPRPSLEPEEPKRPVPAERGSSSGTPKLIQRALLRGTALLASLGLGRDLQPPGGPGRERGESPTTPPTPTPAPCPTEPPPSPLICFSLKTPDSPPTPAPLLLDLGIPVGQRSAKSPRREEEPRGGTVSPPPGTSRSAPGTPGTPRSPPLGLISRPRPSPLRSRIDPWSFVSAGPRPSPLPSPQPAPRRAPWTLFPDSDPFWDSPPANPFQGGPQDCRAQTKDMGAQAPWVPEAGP
Test [4] addresses Homeodomain-interacting protein kinase 2 (Homo sapiens, UniProt Q9H2X6). The test is described as follows: Selectivity interaction (Kinase panel (Invitrogen)) EUB0000639a HIPK2. The settings on record: at 200 nM.
The target in test [5] is T2, Protein kinase C iota type (Homo sapiens) (UniProt P41743).
T2 sequence (whole entry): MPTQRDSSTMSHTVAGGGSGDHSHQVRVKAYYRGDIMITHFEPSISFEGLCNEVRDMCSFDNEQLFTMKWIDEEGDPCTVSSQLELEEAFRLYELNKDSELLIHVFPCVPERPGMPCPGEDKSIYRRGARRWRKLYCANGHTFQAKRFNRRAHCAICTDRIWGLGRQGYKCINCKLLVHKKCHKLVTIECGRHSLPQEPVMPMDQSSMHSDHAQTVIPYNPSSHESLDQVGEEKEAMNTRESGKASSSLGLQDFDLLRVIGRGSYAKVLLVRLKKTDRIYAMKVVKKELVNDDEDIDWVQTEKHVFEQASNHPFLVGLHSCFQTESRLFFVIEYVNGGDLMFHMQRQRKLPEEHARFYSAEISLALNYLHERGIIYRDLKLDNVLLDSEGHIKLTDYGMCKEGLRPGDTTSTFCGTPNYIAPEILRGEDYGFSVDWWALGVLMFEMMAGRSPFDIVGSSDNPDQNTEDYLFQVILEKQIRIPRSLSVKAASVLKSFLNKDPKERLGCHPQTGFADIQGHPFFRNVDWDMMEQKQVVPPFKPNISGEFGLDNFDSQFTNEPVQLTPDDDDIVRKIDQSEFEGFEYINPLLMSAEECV
The test is described as follows: Selectivity interaction (ActivX KiNativ screen (kinase selectivity in THP-1 cell lysates)) EUB0000639a PRKCI. In kind it is subcellular. To be noted: lysate, at 0.01 µM.

Test [6] addresses Proto-oncogene tyrosine-protein kinase Src (Homo sapiens, UniProt P12931). Briefly: Selectivity interaction (Kinase panel (literature)) EUB0001199aCl SRC. The settings on record: at 1 µM.
Test [7] has as its target Serine/threonine-protein kinase 33 (Homo sapiens) (UniProt Q9BYT3). The test is described as follows: Selectivity interaction (ProQinase) EUB0000171b STK33.
Test [8] addresses T3, Phosphorylase b kinase gamma catalytic chain, liver/testis isoform (Homo sapiens) (UniProt P15735).
T3 sequence (whole entry): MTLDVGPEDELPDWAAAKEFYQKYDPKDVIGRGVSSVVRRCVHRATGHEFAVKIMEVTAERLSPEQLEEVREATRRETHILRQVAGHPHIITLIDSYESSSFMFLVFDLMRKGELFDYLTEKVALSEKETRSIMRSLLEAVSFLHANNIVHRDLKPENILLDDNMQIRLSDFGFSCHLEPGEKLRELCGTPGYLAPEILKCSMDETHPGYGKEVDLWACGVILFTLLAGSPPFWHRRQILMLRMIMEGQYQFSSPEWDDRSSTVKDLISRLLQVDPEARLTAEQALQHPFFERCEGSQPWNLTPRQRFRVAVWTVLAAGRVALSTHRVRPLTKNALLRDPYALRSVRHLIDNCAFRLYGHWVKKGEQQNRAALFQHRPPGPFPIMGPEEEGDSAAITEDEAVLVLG
Briefly: Selectivity interaction (KinomeScan (DiscoverX)) EUB0000092b PHKG2. The settings on record: at 10 µM.

The target of test [9] is Mitogen-activated protein kinase kinase kinase 11 (Homo sapiens) (UniProt Q16584). Briefly: Selectivity interaction (KinomeScan (DiscoverX)) EUB0000229b MAP3K11. To be noted: at 10 µM.

Sequence of Serine/threonine-protein kinase 33 (Homo sapiens) (Q9BYT3 whole entry, looked up, canonical isoform): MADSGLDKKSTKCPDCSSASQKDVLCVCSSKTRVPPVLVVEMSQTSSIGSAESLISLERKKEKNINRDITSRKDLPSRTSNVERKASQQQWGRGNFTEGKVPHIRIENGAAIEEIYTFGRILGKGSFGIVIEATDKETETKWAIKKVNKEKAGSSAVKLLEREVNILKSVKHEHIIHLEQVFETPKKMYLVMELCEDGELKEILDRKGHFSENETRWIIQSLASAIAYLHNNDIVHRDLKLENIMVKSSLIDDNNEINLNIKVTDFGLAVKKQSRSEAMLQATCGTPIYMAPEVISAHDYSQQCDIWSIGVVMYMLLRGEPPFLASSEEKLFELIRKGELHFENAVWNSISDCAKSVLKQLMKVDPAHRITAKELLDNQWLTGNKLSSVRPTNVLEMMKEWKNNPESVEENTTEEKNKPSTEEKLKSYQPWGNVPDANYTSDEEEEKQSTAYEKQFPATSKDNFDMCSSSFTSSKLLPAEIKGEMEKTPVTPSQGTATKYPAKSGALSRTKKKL
Sequence of Homeodomain-interacting protein kinase 2 (Q9H2X6 whole entry, looked up): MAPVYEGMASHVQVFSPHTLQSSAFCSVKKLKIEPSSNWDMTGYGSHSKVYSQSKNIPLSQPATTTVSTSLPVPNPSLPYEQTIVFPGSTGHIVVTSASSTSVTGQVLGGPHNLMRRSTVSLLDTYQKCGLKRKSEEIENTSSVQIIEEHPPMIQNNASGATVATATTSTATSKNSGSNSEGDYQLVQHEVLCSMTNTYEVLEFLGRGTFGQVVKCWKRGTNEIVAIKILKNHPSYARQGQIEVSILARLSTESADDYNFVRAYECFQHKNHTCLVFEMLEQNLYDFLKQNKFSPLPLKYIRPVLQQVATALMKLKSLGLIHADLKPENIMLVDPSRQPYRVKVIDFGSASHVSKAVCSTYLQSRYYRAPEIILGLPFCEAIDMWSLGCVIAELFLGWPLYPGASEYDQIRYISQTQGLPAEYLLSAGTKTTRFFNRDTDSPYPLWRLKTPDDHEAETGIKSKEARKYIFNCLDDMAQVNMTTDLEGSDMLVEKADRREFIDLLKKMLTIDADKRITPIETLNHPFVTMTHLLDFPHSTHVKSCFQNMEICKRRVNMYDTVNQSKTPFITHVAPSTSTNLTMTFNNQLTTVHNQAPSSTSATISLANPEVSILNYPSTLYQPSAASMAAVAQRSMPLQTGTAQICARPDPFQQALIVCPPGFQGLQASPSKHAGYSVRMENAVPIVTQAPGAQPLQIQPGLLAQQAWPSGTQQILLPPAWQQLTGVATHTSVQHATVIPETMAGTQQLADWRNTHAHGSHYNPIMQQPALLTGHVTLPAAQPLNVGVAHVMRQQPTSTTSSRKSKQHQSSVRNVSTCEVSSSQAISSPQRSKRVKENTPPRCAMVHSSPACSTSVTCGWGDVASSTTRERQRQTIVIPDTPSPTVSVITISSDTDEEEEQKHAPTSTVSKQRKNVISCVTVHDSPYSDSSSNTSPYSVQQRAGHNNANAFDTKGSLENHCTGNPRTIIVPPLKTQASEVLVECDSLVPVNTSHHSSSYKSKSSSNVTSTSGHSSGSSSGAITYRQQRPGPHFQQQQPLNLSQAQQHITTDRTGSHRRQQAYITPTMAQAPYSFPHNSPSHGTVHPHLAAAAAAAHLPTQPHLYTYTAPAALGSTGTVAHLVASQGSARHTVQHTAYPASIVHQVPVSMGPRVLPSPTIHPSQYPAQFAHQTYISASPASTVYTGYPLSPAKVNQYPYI
Sequence of Proto-oncogene tyrosine-protein kinase Src (P12931 2-536 limits assumed): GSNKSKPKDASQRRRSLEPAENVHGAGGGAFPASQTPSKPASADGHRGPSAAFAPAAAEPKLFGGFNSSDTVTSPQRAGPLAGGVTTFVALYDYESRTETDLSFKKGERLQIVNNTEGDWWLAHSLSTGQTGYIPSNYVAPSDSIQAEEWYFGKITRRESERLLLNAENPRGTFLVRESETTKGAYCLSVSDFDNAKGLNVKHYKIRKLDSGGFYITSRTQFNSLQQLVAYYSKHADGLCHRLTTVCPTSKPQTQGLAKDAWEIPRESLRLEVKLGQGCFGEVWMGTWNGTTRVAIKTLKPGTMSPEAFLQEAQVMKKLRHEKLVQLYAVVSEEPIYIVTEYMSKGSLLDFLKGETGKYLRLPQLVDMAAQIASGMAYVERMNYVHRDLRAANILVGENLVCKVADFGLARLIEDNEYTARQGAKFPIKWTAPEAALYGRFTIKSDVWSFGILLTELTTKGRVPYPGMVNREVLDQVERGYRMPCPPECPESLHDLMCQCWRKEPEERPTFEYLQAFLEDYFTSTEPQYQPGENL

As to `CCN(CC)CCCCNc1ncc2cc(-c3cc(OC)cc(OC)c3)c(NC(=O)NC(C)(C)C)nc2n1`, the % of control in [1] came out at 100%.
Regarding `CC[C@@H]1[C@H](F)C(=O)N[C@@H]1COc1nccc2cc(C(N)=O)c(OC)cc12` [ZIMLOVISERTIB], the % of inhibition in [2] is -8.62%; in [3], -22.3%; in test [4], 4.6%; in test [5], -6.4%.
On to `CN1Cc2nccc(-c3cn(C)nc3-c3ccc(F)cc3)c2C1=O`, for which the % of inhibition in test [6] was found to be 6%.
With `C=CC(=O)Nc1cccc(C(=O)Nc2ccc(Nc3cc(-c4[nH]c(SC)nc4C)ccn3)cc2)c1`, the % of control came to 76% in test [7] (at 1 µM) and 71% in test [7] (at 5 µM).
Consider `CCC(=O)N1CCN(c2ccc(-n3c(=O)ccc4cnc5ccc(-c6cnc7ccccc7c6)cc5c43)cc2C(F)(F)F)CC1`, for which, in test [8], the % of control stood at 100%.
Turning to `COc1cc(N(C)c2ccnc3ccc(C(F)(F)F)cc23)cc(OC)c1OC`, the % binding in [9] stood at 92%.

(Values after ChEMBL document CHEMBL5465560, “Selectivity Literature for EUbOPEN Chemogenomic Library” (2024).)
